# Experimental data from ChEMBL document CHEMBL4024779, “Novel Terminal Bipheny-Based Diapophytoene Desaturases (CrtN) Inhibitors as Anti-MRSA/VISR/LRSA Agents with Reduced hERG Activity” (J Med Chem, 2018).
# pIC50: −log10 of the molar value.
# Experiments:
# [1] = molecular target: T1, 4,4'-diapophytoene desaturase (4,4'-diaponeurosporene-forming) (Staphylococcus aureus (strain Newman), UniProt O07855); test: Inhibition of CrtN in Staphylococcus aureus Newman assessed as reduction in staphyloxanthin levels after 48 hrs by spectrophotometric method-based pigment inhibition assay; parameters: species or system Staphylococcus aureus subsp. aureus str. Newman
# T1 sequence (O07855 whole entry): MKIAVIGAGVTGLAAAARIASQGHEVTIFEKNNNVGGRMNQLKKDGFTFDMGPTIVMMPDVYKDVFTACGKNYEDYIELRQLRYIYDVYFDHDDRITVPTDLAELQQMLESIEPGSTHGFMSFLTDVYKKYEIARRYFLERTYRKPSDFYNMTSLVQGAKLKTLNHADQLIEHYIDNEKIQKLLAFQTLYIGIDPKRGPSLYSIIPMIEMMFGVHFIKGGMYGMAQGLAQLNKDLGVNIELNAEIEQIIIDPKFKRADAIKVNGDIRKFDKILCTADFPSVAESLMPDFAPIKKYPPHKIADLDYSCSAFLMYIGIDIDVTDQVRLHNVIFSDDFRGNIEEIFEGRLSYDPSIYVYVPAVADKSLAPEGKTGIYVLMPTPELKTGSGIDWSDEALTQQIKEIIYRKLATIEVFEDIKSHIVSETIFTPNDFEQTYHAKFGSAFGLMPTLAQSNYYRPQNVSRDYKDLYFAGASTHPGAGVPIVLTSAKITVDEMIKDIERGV
# [2] = Cytotoxicity against HEK293 cells after 43 hrs by Alamar blue dye-based fluorescence assay; assay type: cell-based; settings: human
# HepG2 = test: Cytotoxicity against human HepG2 cells after 43 hrs by Alamar blue dye-based fluorescence assay; assay type: cell-based; settings: HepG2, 43 h
# Trichophyton rubrum = test: In vitro antifungal activity against Trichophyton rubrum after 7 days by serial dilution method; assay type: functional; settings: 168 h
# Nannizzia gypsea = test: In vitro antifungal activity against Microsporum gypseum after 7 days by serial dilution method; assay type: functional; settings: 168 h
# Trichophyton verrucosum = test: In vitro antifungal activity against Trichophyton verrucosum after 7 days by serial dilution method; assay type: functional; settings: 168 h
# [3] = system: Trichophyton mentagrophytes; test: In vitro antifungal activity against Trichophyton mentagrophytes after 7 days by serial dilution method; assay type: functional; settings: 168 h
SMILES,pIC50 [1],also measured
CN(C/C=C/C1CCCC1)Cc1coc2ccccc12,6.40,–
CN(C/C=C/c1ccc2ccccc2c1)Cc1coc2ccccc12,8.19,–
CN(C/C=C/c1cccs1)Cc1cccc2cc[nH]c12,< 6.00,–
CN(C/C=C/c1ccc(C(F)(F)F)cc1F)Cc1cccc2cc[nH]c12,7.32,–
CN(C/C=C/c1ccc(C(F)(F)F)cc1)Cc1cccc2cc[nH]c12,7.30,–
CN(CC/C=C/c1ccc(-c2ccccc2)cc1)Cc1coc2ccccc12,< 6.00,–
FC(F)(F)c1ccc(/C=C/CNCc2cccc3cc[nH]c23)cc1,< 6.00,–
CN(C/C=C/c1ccc(C(F)(F)F)cc1)Cc1ccc2cc[nH]c2c1,7.19,–
CC(C)N(C/C=C/c1ccc(C(F)(F)F)cc1)Cc1cccc2cc[nH]c12,< 6.00,–
COc1ccc(/C=C/CN(C)Cc2cccc3cc[nH]c23)c(F)c1,7.14,–
CCN(C/C=C/c1ccc(C(F)(F)F)cc1)Cc1cccc2cc[nH]c12,6.93,–
C/C(=C\c1ccc(-c2ccccc2)cc1)CN(C)Cc1coc2ccccc12,< 6.00,–
CN(C/C=C/c1ccc(C(F)(F)F)cc1)Cc1csc2ccccc12,< 6.00,–
CN(C/C=C/c1cccs1)Cc1coc2ccccc12,< 6.00,–
CN(C/C=C/c1ccc(C(F)(F)F)cc1)Cc1cccc2[nH]ccc12,7.05,–
C[C@@H]1[C@H](O)[C@@H](C)/C=C/C=C/C=C/C=C/C=C/C=C/C=C/[C@H](O[C@@H]2O[C@H](C)[C@@H](O)[C@H](N)[C@@H]2O)C[C@@H]2O[C@](O)(C[C@@H](O)C[C@@H](O)[C@H](O)CC[C@@H](O)C[C@@H](O)CC(=O)O[C@H]1C)C[C@H](O)[C@H]2C(=O)O [AMPHOTERICIN B],–,CC50 at 43 h [2]: 4200 nM; pIC50 (HepG2): 5.51
CN(C/C=C/c1ccccc1C(F)(F)F)Cc1cccc2cc[nH]c12,< 6.00,–
FC(F)(F)c1ccc(/C=C/CNCC2=COC3C=CC=CC23)cc1 (stereo not drawn),< 6.00,–
CN(C/C=C/c1ccc(F)cc1)Cc1coc2ccccc12,7.13,–
CN(C/C=C/c1cccc(Cl)c1)Cc1coc2ccccc12,< 6.00,–
CN(C/C=C/c1ccc(Cl)cc1Cl)Cc1coc2ccccc12,8.21,–
CN(C/C=C/c1ccccc1[N+](=O)[O-])Cc1cccc2cc[nH]c12,< 6.00,–
Cc1ccc(/C=C/CN(C)Cc2cccc3cc[nH]c23)cc1,6.70,–
CN(C/C=C/c1ccc(C(F)(F)F)cc1)Cc1ccc2[nH]ccc2c1,7.20,–
CN(C/C=C/c1ccc(C(F)(F)F)c(F)c1)Cc1coc2ccccc12,< 6.00,–

SMILES,pIC50 [1],also measured
CN(C/C=C/c1ccc(C(F)(F)F)cc1)Cc1cc2ccccc2o1,7.14,–
CN(C/C=C/c1ccc(C(F)(F)F)cc1)Cc1coc2ccccc12,8.01,–
CN(C/C=C/c1ccc(Br)cc1)Cc1cccc2cc[nH]c12,7.08,–
Cc1cccc(/C=C/CN(C)Cc2cccc3cc[nH]c23)c1,< 6.00,–
C/C=C/CN(C)Cc1cccc2cc[nH]c12,< 6.00,–
CN(CC#Cc1ccc(-c2ccccc2)cc1)Cc1coc2ccccc12,< 6.00,–
CN(C/C=C/C1CCCCC1)Cc1cccc2cc[nH]c12,< 6.00,–
COc1cccc(/C=C/CN(C)Cc2coc3ccccc23)c1,< 6.00,–
CCOc1ccc(/C=C/CN(C)Cc2cccc3cc[nH]c23)cc1,7.19,–
CN(C/C=C/c1ccc(C#N)cc1)Cc1cccc2cc[nH]c12,6.11,–
CN(C/C=C/c1cccc2ccccc12)Cc1coc2ccccc12,< 6.00,–
CN(C/C=C/C1CCCC1)Cc1cccc2cc[nH]c12,< 6.00,–
CN(C/C=C/C=C/c1ccc(-c2ccccc2)cc1)Cc1coc2ccccc12,< 6.00,–
CN(C/C=C/c1ccc([N+](=O)[O-])cc1)Cc1coc2ccccc12,8.02,–
CN(C/C=C/c1ccccc1)Cc1coc2ccccc12,< 6.00,–
CN(C/C=C/c1ccc(F)cc1)Cc1cccc2cc[nH]c12,< 6.00,–
COc1ccccc1/C=C/CN(C)Cc1coc2ccccc12,< 6.00,–
CN(C/C=C/c1ccccc1F)Cc1coc2ccccc12,< 6.00,–
Cc1ccc(/C=C/CN(C)Cc2coc3ccccc23)cc1,8.00,–
C/C=C/CN(C)Cc1coc2ccccc12,7.04,–
CN(C/C=C/c1ccc(C(F)(F)F)cc1)Cc1cc2ccccc2s1,6.99,–
CN(C/C=C/c1cccc(F)c1)Cc1cccc2cc[nH]c12,< 6.00,–
CCOc1ccc(/C=C/CN(C)Cc2coc3ccccc23)cc1,< 6.00,–
CN(C/C=C/c1ccc(Br)cc1)Cc1coc2ccccc12,8.60,CC50 at 43 h [2]: 41900 nM; pIC50 (HepG2): 4.48
CN(C/C=C/c1ccc(C(F)(F)F)cc1)Cc1c[nH]c2ccccc12,< 6.00,–

SMILES,pIC50 [1],also measured
CN(CCCc1ccc(-c2ccccc2)cc1)Cc1cccc2cc[nH]c12,< 6.00,–
CN(C/C=C/c1ccc(C(F)(F)F)c(F)c1)Cc1cccc2cc[nH]c12,< 6.00,–
CN(C/C=C/c1ccc([N+](=O)[O-])cc1)Cc1cccc2cc[nH]c12,< 6.00,–
COc1ccccc1/C=C/CN(C)Cc1cccc2cc[nH]c12,< 6.00,–
CN(C/C=C/c1ccc(Cl)cc1)Cc1coc2ccccc12,8.31,CC50 at 43 h [2]: 42100 nM; pIC50 (HepG2): 4.22
OC(Cn1cncn1)(Cn1cncn1)c1ccc(F)cc1F [FLUCONAZOLE],–,MIC80 (Trichophyton rubrum): 1 µg/mL; MIC80 (Nannizzia gypsea): 8 µg/mL; MIC80 (Trichophyton verrucosum): 2 µg/mL; MIC80 [3]: 2 µg/mL
C[C@@H](c1ncncc1F)[C@](O)(Cn1cncn1)c1ccc(F)cc1F [VORICONAZOLE],–,MIC80 (Trichophyton rubrum): 0.0312 µg/mL; MIC80 (Nannizzia gypsea): 0.25 µg/mL; MIC80 (Trichophyton verrucosum): 0.0312 µg/mL; MIC80 [3]: 0.0312 µg/mL
CN(C/C=C/c1ccc(C(F)F)cc1)Cc1cccc2cc[nH]c12,7.36,–
COC(=O)c1ccc(/C=C/CN(C)Cc2cccc3cc[nH]c23)cc1,7.06,–
CN(C/C=C/c1ccccc1)Cc1cccc2cc[nH]c12,< 6.00,–
CN(C/C=C/c1ccc2ccccc2c1)Cc1cccc2cc[nH]c12,6.88,–
CN(C/C=C/c1cccc2ccccc12)Cc1cccc2cc[nH]c12,< 6.00,–
COc1ccc(/C=C/CN(C)Cc2coc3ccccc23)c(F)c1,< 6.00,–
CN(C/C=C/c1ccccc1F)Cc1cccc2cc[nH]c12,< 6.00,–
Cc1ccccc1/C=C/CN(C)Cc1cccc2cc[nH]c12,< 6.00,–
CN(C/C=C/c1ccco1)Cc1cccc2cc[nH]c12,< 6.00,–
COC(=O)c1ccc(/C=C/CN(C)Cc2coc3ccccc23)cc1,8.02,–
COc1ccc(/C=C/CN(C)Cc2cccc3cc[nH]c23)cc1,6.78,–
CN(C/C=C/c1ccc(C(C)(C)C)cc1)Cc1coc2ccccc12,< 6.00,–
CN(C/C=C/c1ccccc1C(F)(F)F)Cc1coc2ccccc12,< 6.00,–
CC(=O)N1CCN(c2ccc(OCC3COC(Cn4ccnc4)(c4ccc(Cl)cc4Cl)O3)cc2)CC1 (stereo not drawn) [KETOCONAZOLE],–,MIC80 (Trichophyton rubrum): 0.5 µg/mL; MIC80 (Nannizzia gypsea): 2 µg/mL; MIC80 (Trichophyton verrucosum): 0.0625 µg/mL; MIC80 [3]: 0.0625 µg/mL
COc1ccc(/C=C/CN(C)Cc2coc3ccccc23)cc1F,< 6.00,–
CN(C/C=C/c1cccc(F)c1)Cc1coc2ccccc12,< 6.00,–
CN(C/C=C/c1cccc([N+](=O)[O-])c1)Cc1cccc2cc[nH]c12,< 6.00,–
CN(C/C=C/c1ccccc1[N+](=O)[O-])Cc1coc2ccccc12,7.13,–

SMILES,pIC50 [1],also measured
CN(C/C=C/C1CCCCC1)Cc1coc2ccccc12,< 6.00,–
CN(C/C=C/c1ccc(C#N)cc1)Cc1coc2ccccc12,7.10,–
COc1ccc(/C=C/CN(C)Cc2cccc3cc[nH]c23)cc1F,< 6.00,–
CN(C/C=C/c1ccccc1Cl)Cc1cccc2cc[nH]c12,< 6.00,–
CCN(C/C=C/c1ccc(C(F)(F)F)cc1)CC1=COC2C=CC=CC12 (stereo not drawn),< 6.00,–
CN(C/C=C/c1ccc(C(F)(F)F)cc1)Cc1cc2ccccc2[nH]1,< 6.00,–
Cc1ccccc1/C=C/CN(C)Cc1coc2ccccc12,7.06,–
CN(C/C=C/c1ccc(Cl)cc1Cl)Cc1cccc2cc[nH]c12,6.55,–
CN(C/C=C/c1ccc(C(C)(C)C)cc1)Cc1cccc2cc[nH]c12,6.15,–
CN(C/C=C/c1cccc(Cl)c1)Cc1cccc2cc[nH]c12,< 6.00,–
COc1cccc(/C=C/CN(C)Cc2cccc3cc[nH]c23)c1,< 6.00,–
CN(C/C=C/c1ccc(C(F)(F)F)cc1F)Cc1coc2ccccc12,8.04,–
CN(C/C=C/c1ccco1)Cc1coc2ccccc12,< 6.00,–
CN(C/C=C/c1ccccc1Cl)Cc1coc2ccccc12,6.44,–
CN(C/C=C/c1cccc(C(F)(F)F)c1)Cc1coc2ccccc12,< 6.00,–
CN(CC#Cc1ccc(-c2ccccc2)cc1)Cc1cccc2cc[nH]c12,6.99,–
CN(C/C=C/c1cccc(C(F)(F)F)c1)Cc1cccc2cc[nH]c12,< 6.00,–
CN(C/C=C/c1cccc([N+](=O)[O-])c1)Cc1coc2ccccc12,< 6.00,–
CN(C/C=C/c1ccc(C(F)F)cc1)Cc1coc2ccccc12,8.19,–
Cc1cccc(/C=C/CN(C)Cc2coc3ccccc23)c1,< 6.00,–
C/C(=C\c1ccc(-c2ccccc2)cc1)CN(C)Cc1cccc2cc[nH]c12,< 6.00,–
CC(C)N(C/C=C/c1ccc(C(F)(F)F)cc1)CC1=COC2C=CC=CC12 (stereo not drawn),< 6.00,–
CN(CCCc1ccc(-c2ccccc2)cc1)Cc1coc2ccccc12,< 6.00,–
CN(C/C=C/c1ccc(Cl)cc1)Cc1cccc2cc[nH]c12,6.85,–
